Molecules are shown by their SMILES.

What all share (format): in vivo
In one assay the test system is Tenebrio molitor pupae. Briefly: topical application to Tenebrio molitor pupae, maturation inhibition. The text has this:
(§1) The compounds were applied in acetone solution at concentrations of 10 percent, 1 percent and 0.5 percent. One microliter of the acetone solution was applied to each test specimen. Ten test specimens were employed for each insect at each concentration and compared to ten acetone controls and ten zero controls. Approximately eight to ten days were required before results could be ascertained.
(§2) The insect species used in the test were Tenebrio molitor pupae; milkweed bug, fourth nymphal stage; wax moth, fifth larval stage; and Mexican bean beetle, fourth larval stage. At the completion of the test, each specimen was examined for the degree of juvenile and adult characteristics. The milkweed bug, wax moth, and Mexican bean beetle were assigned a numerical rating of 0 to 3 with 0 indicating no effect and 3 indicating the maximum effect or least adult development. Because of differences in morphology the Tenebrio rating scale was 0 to 4. In all cases a rating of 2 or higher means that the insect is incapable of reproduction. The number of specimens in each rating classification are given. In any test were the total of specimens reported is less than 10, those unreported died in some metamorphic stage. Such deaths indicate control, since the dead insects are not capable of reproducing.

The test system of a further assay is milkweed bug. Briefly: topical application to milkweed bug, fourth nymphal stage, maturation inhibition. The conditions noted are these: rating scale 0-3.
Excerpt: as §1, §2

The test system of another assay is wax moth. Briefly: topical application to wax moth, fifth larval stage, maturation inhibition.
Excerpt: as §1, §2

Another assay concerns Mexican bean beetle. Briefly: topical application to Mexican bean beetle, fourth larval stage, maturation inhibition.
Excerpt: as §1, §2

The mark [1] stands for this setting: 10% in acetone, 1 microliter topical, rating scale 0 (no effect) to 3 (maximum).
Setting [2] is: 10% in acetone, 1 microliter topical, rating scale 0 (no effect) to 4 (maximum).

Consider `CC(C)=CCC/C(C)=C/CCc1ccc(F)cc1` [trans-9-(4-FLUOROPHENYL)-2,6-DIMETHYL-2,6-NONADIENE], for which the “number of specimens in rating 0” value in the assay with Tenebrio molitor pupae (0.5%, rating scale 0-4) worked out at 10 specimens; with Tenebrio molitor pupae (1%, rating scale 0-4), 10 specimens; in the assay on wax moth (0.5%, rating scale 0-3), 10 specimens; in the assay on wax moth (1%, rating scale 0-3) it was 9 specimens; in the assay on wax moth (setting [1]), 10 specimens. The “number of specimens in rating 4” value in the assay with Tenebrio molitor pupae (10%, rating scale 0-4) was found to be 10 specimens. Also, the “number of specimens in rating 2” value in the assay with milkweed bug (0.5%) turned out to be 3 specimens; in the assay on milkweed bug (1%), 2 specimens. The “number of specimens in rating 3” value in the assay with milkweed bug (0.5%) turned out to be 7 specimens; in the assay with milkweed bug (1%) it was 8 specimens; in the assay with milkweed bug (10%) it was 10 specimens; in the assay with Mexican bean beetle (0.5%, rating scale 0-3) it was 10 specimens; in the assay on Mexican bean beetle (1%, rating scale 0-3), 10 specimens; with Mexican bean beetle (10%, rating scale 0-3), 10 specimens.

In the case of `CCC(C)=CCCC(=CCCc1ccc2c(c1)OCO2)CC` [3-METHYL-7-ETHYL-10-(3,4-METHYLENEDIOXYPHENYL)-3,7-DECADIENE], the “number of specimens in rating 3” value in the assay with Tenebrio molitor pupae (0.5%, rating scale 0-4) was 2 specimens; in the assay on Tenebrio molitor pupae (1%, rating scale 0-4), 1 specimens; in the assay on milkweed bug (1%), 1 specimens; in the assay on milkweed bug (10%), 10 specimens; with Mexican bean beetle (0.5%, rating scale 0-3) it was 9 specimens; in the assay with Mexican bean beetle (1%, rating scale 0-3), 10 specimens. Also, in the assay on Mexican bean beetle (10%, rating scale 0-3), the “number of specimens in rating 3” value turned out to be 10 specimens. Moreover, the “number of specimens in rating 4” value stood at 8 specimens in the assay on Tenebrio molitor pupae (0.5%, rating scale 0-4); 9 specimens in the assay with Tenebrio molitor pupae (1%, rating scale 0-4); 10 specimens in the assay on Tenebrio molitor pupae (10%, rating scale 0-4). The “number of specimens in rating 0” value in the assay with milkweed bug (0.5%) is listed as 9 specimens; in the assay on milkweed bug (1%), 7 specimens; in the assay on wax moth (0.5%, rating scale 0-3) it was 9 specimens; in the assay on wax moth (1%, rating scale 0-3), 10 specimens; in the assay with wax moth (setting [1]), 10 specimens. For the same molecule, the “number of specimens in rating 1” value in the assay with milkweed bug (0.5%) came to 1 specimens. The “number of specimens in rating 2” value in the assay with milkweed bug (1%) is given as 2 specimens; with Mexican bean beetle (0.5%, rating scale 0-3), 1 specimens.

For the molecule `CC(C)=CCC/C(C)=C/CCc1ccc(N(C)C)cc1` [trans-4-(4,8-DIMETHYL-3,7-NONADIENYL)-N,N-DIMETYLANILINE], the “number of specimens in rating 0” value was found to be 10 specimens in the assay with Tenebrio molitor pupae (0.5%, rating scale 0-4); 2 specimens in the assay on Tenebrio molitor pupae (1%, rating scale 0-4); 10 specimens in the assay with milkweed bug (0.5%); 5 specimens in the assay with milkweed bug (1%); 10 specimens with wax moth (0.5%, rating scale 0-3); 10 specimens in the assay with wax moth (1%, rating scale 0-3). In addition, the “number of specimens in rating 0” value was 10 specimens in the assay with wax moth (setting [1]); 10 specimens with Mexican bean beetle (0.5%, rating scale 0-3); 9 specimens in the assay with Mexican bean beetle (1%, rating scale 0-3). The “number of specimens in rating 1” value amounted to 2 specimens in the assay with Tenebrio molitor pupae (1%, rating scale 0-4) and 1 specimens in the assay with milkweed bug (1%). Besides, the “number of specimens in rating 2” value in the assay on Tenebrio molitor pupae (1%, rating scale 0-4) is on record as 1 specimens; in the assay with milkweed bug (1%) it was 1 specimens. The “number of specimens in rating 3” value in the assay with Tenebrio molitor pupae (1%, rating scale 0-4) worked out at 4 specimens; with milkweed bug (1%), 2 specimens; in the assay with milkweed bug (10%), 10 specimens; in the assay on Mexican bean beetle (1%, rating scale 0-3) it was 1 specimens; with Mexican bean beetle (10%, rating scale 0-3), 10 specimens. Further, in the assay on Tenebrio molitor pupae (10%, rating scale 0-4), the “number of specimens in rating 4” value turned out to be 10 specimens.

In the case of `CC(C)=CCC/C(C)=C/CCc1ccc(C#N)cc1` [trans-4-(4,8-DIMETHYL-3,7-NONADIENYL)BENZONITRILE], the “number of specimens in rating 0” value was determined as 10 specimens in the assay with Tenebrio molitor pupae (0.5%, rating scale 0-4); 10 specimens in the assay on Tenebrio molitor pupae (1%, rating scale 0-4); 9 specimens in the assay with Tenebrio molitor pupae (setting [2]); 3 specimens in the assay on milkweed bug (0.5%); 10 specimens with wax moth (0.5%, rating scale 0-3); 10 specimens in the assay on wax moth (1%, rating scale 0-3). The “number of specimens in rating 0” value in the assay on wax moth (setting [1]) is 10 specimens; with Mexican bean beetle (0.5%, rating scale 0-3), 10 specimens; with Mexican bean beetle (1%, rating scale 0-3), 10 specimens; in the assay on Mexican bean beetle (setting [1]), 10 specimens. Also, in the assay on Tenebrio molitor pupae (10%, rating scale 0-4), the “number of specimens in rating 4” value was determined as 1 specimens. Moreover, in the assay on milkweed bug (0.5%), the “number of specimens in rating 1” value is listed as 5 specimens. The “number of specimens in rating 2” value with milkweed bug (0.5%) came out at 1 specimens; in the assay on milkweed bug (1%) it was 3 specimens. In addition, the “number of specimens in rating 3” value turned out to be 1 specimens in the assay on milkweed bug (0.5%), 7 specimens with milkweed bug (1%) and 10 specimens in the assay with milkweed bug (10%).

On to `CC(C)=CCCC(C)=CCCc1cc2c(cc1Cl)OCO2` [9-(2-CHLORO-4,5-METHYLENEDIOXYPHENYL)-2,6-DIMETHYL-2,6-NONADIENE], for which the “number of specimens in rating 0” value in the assay on Tenebrio molitor pupae (0.5%, rating scale 0-4) came to 10 specimens; with Tenebrio molitor pupae (1%, rating scale 0-4), 10 specimens; in the assay with Tenebrio molitor pupae (setting [2]), 10 specimens; in the assay with milkweed bug (0.5%) it was 9 specimens; with milkweed bug (1%) it was 3 specimens; in the assay with wax moth (0.5%, rating scale 0-3) it was 10 specimens. Also, the “number of specimens in rating 0” value is given as 10 specimens in the assay with wax moth (1%, rating scale 0-3); 8 specimens with wax moth (setting [1]); 10 specimens in the assay with Mexican bean beetle (0.5%, rating scale 0-3); 9 specimens with Mexican bean beetle (1%, rating scale 0-3); 7 specimens with Mexican bean beetle (setting [1]). Further, the “number of specimens in rating 1” value with milkweed bug (0.5%) turned out to be 1 specimens; in the assay with milkweed bug (1%), 1 specimens; in the assay on Mexican bean beetle (10%, rating scale 0-3) it was 3 specimens. Moreover, the “number of specimens in rating 3” value in the assay on milkweed bug (1%) is given as 6 specimens; with milkweed bug (10%) it was 10 specimens; in the assay with Mexican bean beetle (1%, rating scale 0-3), 10 specimens; with Mexican bean beetle (10%, rating scale 0-3), 10 specimens. The “number of specimens in rating 2” value with wax moth (10%, rating scale 0-3) is reported as 1 specimens; in the assay with Mexican bean beetle (1%, rating scale 0-3), 1 specimens.

`COc1ccc(CCC=C(C)CCC=C(C)C)cc1` [2,6-DIMETHYL-9-(4-METHOXYPHENYL)-2,6-NONADIENE]: the “number of specimens in rating 0” value with Tenebrio molitor pupae (0.5%, rating scale 0-4) is listed as 1 specimens; with milkweed bug (0.5%) it was 10 specimens; in the assay with milkweed bug (1%), 5 specimens; in the assay with wax moth (0.5%, rating scale 0-3), 10 specimens; in the assay with wax moth (1%, rating scale 0-3), 9 specimens; in the assay with wax moth (setting [1]) it was 10 specimens. Further, the “number of specimens in rating 0” value in the assay with Mexican bean beetle (0.5%, rating scale 0-3) stood at 10 specimens; with Mexican bean beetle (1%, rating scale 0-3), 10 specimens; in the assay with Mexican bean beetle (setting [1]), 6 specimens. Further, the “number of specimens in rating 1” value with Tenebrio molitor pupae (0.5%, rating scale 0-4) was 6 specimens; in the assay on Tenebrio molitor pupae (1%, rating scale 0-4), 1 specimens; with milkweed bug (1%), 5 specimens; in the assay on Mexican bean beetle (10%, rating scale 0-3) it was 1 specimens. The “number of specimens in rating 2” value in the assay on Tenebrio molitor pupae (0.5%, rating scale 0-4) came to 3 specimens; in the assay with Tenebrio molitor pupae (1%, rating scale 0-4), 2 specimens; in the assay with Mexican bean beetle (10%, rating scale 0-3), 3 specimens. The “number of specimens in rating 3” value with Tenebrio molitor pupae (1%, rating scale 0-4) is given as 5 specimens. Moreover, the “number of specimens in rating 4” value with Tenebrio molitor pupae (1%, rating scale 0-4) was determined as 2 specimens.

In the case of `CC(=CCCc1ccc2c(c1)OCO2)CCCC(C)C` [2,6-DIMETHYL-9-(3,4-METHYLENEDIOXYPHENYL)-6-NONENE], the “number of specimens in rating 0” value with Tenebrio molitor pupae (0.5%, rating scale 0-4) was 3 specimens; in the assay on Tenebrio molitor pupae (setting [2]), 1 specimens; in the assay on milkweed bug (0.5%), 5 specimens; with milkweed bug (1%), 1 specimens; with wax moth (0.5%, rating scale 0-3), 9 specimens; in the assay with wax moth (1%, rating scale 0-3) it was 9 specimens. The “number of specimens in rating 0” value with wax moth (setting [1]) worked out at 10 specimens. In addition, the “number of specimens in rating 1” value in the assay with Tenebrio molitor pupae (0.5%, rating scale 0-4) turned out to be 1 specimens; in the assay with milkweed bug (0.5%) it was 1 specimens; with wax moth (0.5%, rating scale 0-3), 1 specimens; with wax moth (1%, rating scale 0-3) it was 1 specimens; in the assay with Mexican bean beetle (0.5%, rating scale 0-3) it was 1 specimens. The “number of specimens in rating 2” value is 2 specimens with Tenebrio molitor pupae (0.5%, rating scale 0-4); 4 specimens in the assay with Tenebrio molitor pupae (1%, rating scale 0-4); 7 specimens in the assay on Mexican bean beetle (0.5%, rating scale 0-3). Besides, the “number of specimens in rating 3” value in the assay with Tenebrio molitor pupae (0.5%, rating scale 0-4) is recorded as 2 specimens; in the assay on milkweed bug (0.5%), 3 specimens; in the assay with milkweed bug (1%), 8 specimens; in the assay on milkweed bug (10%), 7 specimens; with Mexican bean beetle (0.5%, rating scale 0-3), 2 specimens; in the assay with Mexican bean beetle (1%, rating scale 0-3), 10 specimens. Also, the “number of specimens in rating 3” value in the assay with Mexican bean beetle (10%, rating scale 0-3) was found to be 10 specimens. The “number of specimens in rating 4” value in the assay with Tenebrio molitor pupae (0.5%, rating scale 0-4) was found to be 2 specimens; with Tenebrio molitor pupae (1%, rating scale 0-4), 6 specimens; in the assay with Tenebrio molitor pupae (10%, rating scale 0-4), 9 specimens.

Source of the values: patent US3962282A, “Juvenile hormone mimics” (priority 1974, dated 1976).
